Measured values reported in US7214673B2, “Piperazine substituted aryl benzodiazepines and their use as dopamine receptor antagonists for the treatment of psychotic disorders” (Eli Lilly and Company, priority 2002, dated 2007).

How the values were obtained:
Dopamine D2 receptor = molecular target: T1, Dopamine D2 receptor (Homo sapiens, UniProt P14416); assay: Dopamine D2 receptor binding assay ([125I]iodospiperone); conditions: [125I]iodospiperone 0.1 nM, D2 receptor membranes, 2 hours at room temperature; read-out: Relative D2 Receptor Binding Affinity Ki
T1 construct: purchased Receptor Biology (now owned by NEN) RBHD2CM
T1 sequence (P14416 1-414 isoform P14416-2): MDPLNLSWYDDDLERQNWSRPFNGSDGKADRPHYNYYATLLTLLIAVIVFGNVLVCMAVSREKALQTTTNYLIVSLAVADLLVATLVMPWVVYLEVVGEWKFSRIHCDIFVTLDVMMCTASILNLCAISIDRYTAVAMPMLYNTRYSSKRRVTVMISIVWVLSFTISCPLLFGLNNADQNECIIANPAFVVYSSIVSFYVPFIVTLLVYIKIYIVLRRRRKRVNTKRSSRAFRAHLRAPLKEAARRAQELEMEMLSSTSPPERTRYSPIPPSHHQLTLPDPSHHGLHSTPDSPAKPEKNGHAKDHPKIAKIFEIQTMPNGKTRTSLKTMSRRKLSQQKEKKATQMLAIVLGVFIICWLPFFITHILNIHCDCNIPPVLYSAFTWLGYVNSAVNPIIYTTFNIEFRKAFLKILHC
Protocol: Serotonin 5-HT6 and Dopamine D2 Binding Assay Protocol
The assay buffers used are 50 mM Tris-HCl pH 7.4, 120 mM NaCl, 5 mM KCl, 5 mM MgCl2, 1 mM EDTA for the Dopamine D2s receptor binding assay. […] The membranes used are from Receptor Biology (now owned by NEN), Cat #RBHD2CM for the D2 receptor.
Compounds are obtained as 10 mM stocks in 100% DMSO. They are diluted to 1 mM in 100% DMSO by adding 180 μL DMSO to 20 μL of stock in 96 well plates using a multidrop. […] This is done using a TECAN robot.
The radioligand is diluted in assay buffer to provide 0.1 nM for the D2 assay. Each vial of membranes is diluted up to 92 mL in assay buffer. The final assay volume is 250 μL consisting of 210 μl of diluted membranes, 20 μL of compound or 10% DMSO for total binding, and 20 μL of diluted radioligand. The compounds are transferred from drug dilution plates into coming 96 well assay plates using a 96 well Multimek pipettor. Radioligand and membranes are added to assay plates using multidrop pipettors. Non-specific binding is determined in wells containing a final concentration of 5 μM haloperidol. The final drug concentration range in half logs is from 10 μM down to 0.1 nM.
After addition of drug, membrane, and ligand, the plates are incubated for 2 hours at room temperature. During this time 96 well Millipore filter plates (MAFBNOB50) are soaked for a least 30 minutes with 200 μL per well of 0.5% polyethyleneimine.
The 0.5% PEI is removed from filterplate wells using a TiterTek MAP aspirator and 200 μL of the incubation mixture is transferred from the incubation plate to the filterplate after mixing. This transfer is done using the 96 tip Mutimek pipettor. After transfer to the filterplate filterplates are extracted and ished twice with 220 μL per well of cold buffer on the MAP aspirator. The peel away bottoms are removed from the filterplates and 60 μL per well of microscint 20 scintillation fluid is added per well using a multidrop. Plates are placed into suitable holders and are left at room temperature for 3 hours and are counted for ^3H in either a Wallac Microbeta counter or on a Packard Topcount.

Ki (Dopamine D2 receptor)	melting point	Structure (SMILES)
< 10 nM	95 to 109 °C	COc1ccccc1C[C@H]1CN(C2=Nc3ccccc3Nc3sc(C)cc32)CCN1 [Example 75]
10 to 100 nM	75 to 84 °C	Cc1cc2c(s1)Nc1ccccc1N=C2N1CCN[C@@H](CCc2ccccc2)C1 [Example 59, 2-Methyl-10-(S)-(3-phenethyl-piperazin-1-yl)-4H-3-thia-4,9-diazabenzo[f]azulene]
< 10 nM	169 to 170 °C	Cc1cc2c(s1)Nc1ccccc1N=C2N1CCN[C@@H](Cc2ccccc2)C1 [Example 61]
< 10 nM	81 to 93 °C	COc1ccccc1C[C@H]1CN(C2=Nc3ccccc3Nc3sc(C)cc32)CCN1C [Example 109]
